Measurements reported in PMC6982876, “Synthesis of Novel Benzodifuranyl; 1,3,5-Triazines; 1,3,5-Oxadiazepines; and Thiazolopyrimidines Derived from Visnaginone and Khellinone as Anti-Inflammatory and Analgesic Agents” (Molecules, 2020).
Marks after values point to notes of the source that are not given here.

Assays:
[1] = system: acetic acid-induced writhing in mice; experiment: Acetic acid-induced writhing test (analgesic activity); type: in vivo; conditions: 10 mg/kg p.o.; for Analgesic Activity (% protection): writhing test; for Writhing Number in 20 min (Mean ± SEM): acetic acid 1 h after dosing
Experimental: The analgesic activity of the compounds was performed using the writhing test as described by Gawade et al.. Mice weight ranged from 25 to 30 g. Then, mice were divided into 18 different groups, each containing five animals. The animals fasted for 8 h before the experiment. Administration of the compounds (10 mg/kg, p.o.) was performed orally. Equal doses of diclofenac as the reference drug and saline as a negative control were also administrated orally. Writhing was induced one hour after compound administration by using 0.1 mL of 1% glacial acetic acid at a volume of 0.1 mL/10 g body weight. The number of writhing responses (stretching of the abdomen, extension of hind limbs, twisting of the trunk, and elongation of the body) observed was counted for 20 min. The protection percentile against acetic acid-induced writhing was calculated according to the following formula: (1) Analgesic activity (%) =n−n′/n×100* where n is the mean number of writhes of the control group, and n’ is the mean number of writhes of the tested compound group.

[2] = system: carrageenan-induced paw edema in rats; experiment: Carrageenan-induced paw edema (anti-inflammatory activity); type: in vivo; conditions: 10 mg/kg oral; for % Change in Paw Height (Mean ± SEM): n = 5
Experimental: Albino rats (150–180 g) were used. The rats were divided into 11 experimental groups of five rats each. One hour after oral administration of the compounds (10 mg/kg), 0.1 mL of 1% carrageenan solution was injected in the left hind paw of each animal. Rat paw volumes were measured with a digital caliber plethysmometer (UGO Basile, Varese, Italy) used to measure inflammation height at 0, 1, 2, and 3 h after carrageenan injection. The percentage increase in inflammation in the left hind paw, in comparison to the uninjected right hind paw, was determined, calculated, and expressed as the amount of inflammation. […] The anti-inflammatory activity of the selected analgesic compounds after 3 h was expressed as percentage inhibition of edema, which was calculated according to the following equation: (2) Inhibition of edema (%) =Vcont−Vtest/Vcont×100* where V cont is the edema volume in the control group, and V test is the edema volume in the group of the screened compound.

[3] = molecular target: T1, ovine COX-1 (Ovis aries, UniProt P05979); experiment: In vitro COX inhibitor screening assay (EIA kit, Cayman), COX-1; type: biochemical; conditions: mean of two determinations, enzyme kit, read-out: COX1 IC50
T1 construct: purchased Cayman Chemical, Ann Arbor, MI, USA 560131
T1 sequence (P05979 25-600): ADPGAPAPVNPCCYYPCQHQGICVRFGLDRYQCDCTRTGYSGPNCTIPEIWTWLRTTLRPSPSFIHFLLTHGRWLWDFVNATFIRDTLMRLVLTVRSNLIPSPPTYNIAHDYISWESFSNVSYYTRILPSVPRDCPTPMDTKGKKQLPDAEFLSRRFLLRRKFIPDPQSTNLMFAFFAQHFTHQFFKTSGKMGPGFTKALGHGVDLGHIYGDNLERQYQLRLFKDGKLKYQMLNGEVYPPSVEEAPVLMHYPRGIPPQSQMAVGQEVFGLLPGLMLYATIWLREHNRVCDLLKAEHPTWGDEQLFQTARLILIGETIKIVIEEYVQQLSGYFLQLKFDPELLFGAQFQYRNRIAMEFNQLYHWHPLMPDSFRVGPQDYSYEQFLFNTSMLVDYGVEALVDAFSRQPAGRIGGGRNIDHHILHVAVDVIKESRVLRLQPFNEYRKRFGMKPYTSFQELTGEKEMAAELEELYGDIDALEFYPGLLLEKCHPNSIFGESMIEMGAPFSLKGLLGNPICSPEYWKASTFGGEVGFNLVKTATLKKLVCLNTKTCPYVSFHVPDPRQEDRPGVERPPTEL
Experimental: (§1) Furthermore, the selectivity index for COX-2 (COX-1 IC50 / COX-2 IC50) was calculated for the compounds.

[4] = molecular target: T2, human recombinant COX-2 (Homo sapiens, UniProt P35354); experiment: In vitro COX inhibitor screening assay (EIA kit, Cayman), COX-2; type: biochemical; conditions: for COX2 (SI) selectivity index: COX-1 IC50 / COX-2 IC50; for IC50: COX-2, mean of two determinations, enzyme kit, read-out: COX2 IC50
T2 construct: purchased Cayman Chemical, Ann Arbor, MI, USA 560131
T2 sequence (P35354 18-604): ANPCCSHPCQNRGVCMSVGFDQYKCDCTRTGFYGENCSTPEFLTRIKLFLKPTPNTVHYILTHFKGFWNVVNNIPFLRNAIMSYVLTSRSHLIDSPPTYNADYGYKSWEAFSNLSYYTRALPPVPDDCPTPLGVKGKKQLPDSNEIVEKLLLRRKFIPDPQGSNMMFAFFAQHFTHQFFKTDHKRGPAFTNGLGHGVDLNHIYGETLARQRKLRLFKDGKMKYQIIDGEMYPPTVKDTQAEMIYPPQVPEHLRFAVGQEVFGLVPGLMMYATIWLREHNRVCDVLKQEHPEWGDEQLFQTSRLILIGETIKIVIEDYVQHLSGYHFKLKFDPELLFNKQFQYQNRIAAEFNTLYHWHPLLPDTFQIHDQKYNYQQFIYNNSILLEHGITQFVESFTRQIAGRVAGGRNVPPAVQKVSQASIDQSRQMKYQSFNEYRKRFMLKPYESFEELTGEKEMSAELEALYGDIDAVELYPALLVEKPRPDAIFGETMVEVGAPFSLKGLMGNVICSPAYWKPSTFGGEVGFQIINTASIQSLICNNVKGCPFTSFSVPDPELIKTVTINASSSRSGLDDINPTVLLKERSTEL
Experimental: as §1

SMILES	Analgesic Activity (% protection) ([1]; n = 5)	% Change in Paw Height (Mean ± SEM) ([2]; 2 hr after carrageenan)	% Change in Paw Height (Mean ± SEM) ([2]; 3 hr after carrageenan)	IC50 [3]	COX2 (SI) selectivity index [4]	IC50 [4]	melting point	Writhing Number in 20 min (Mean ± SEM) ([1]; n = 5)	% Change in Paw Height (Mean ± SEM) ([2]; 1 hr after carrageenan)	Anti-Inflammatory Activity (% Inhibition of Edema) ([2]; 3 hr after carrageenan)	Analgesic Activity (% protection) ([1]; n = 5, 10 mg/kg)	Analgesic Activity (% protection) ([1]; n = 5, listed as sodium diclofenac, 10 mg/kg)
COc1c(C(C)=O)c(OCC(=O)Nc2cc(=O)[nH]c(=S)[nH]2)cc2occc12 [Compound 4a, 2-((5-acetyl-4-methoxybenzofuran-6-yl)oxy)-N-(6-oxo-2-thioxo-1,2,3,6-tetrahydropyrimidin-4-yl) acetamide]	18 ± 1.20%	0.40 ± 0.02 ^a %	0.49 ± 0.02 ^a %	18.8 µM	41	0.46 µM	170 to 172 °C	–	–	–	–	–
COc1c(C(C)=O)c(OCC(=O)Nc2cc(=O)[nH]c(=S)[nH]2)c(OC)c2occc12 [Compound 4b, 2-((5-acetyl-4,7-dimethoxybenzofuran-6-yl)oxy)-N-(6-oxo-2-thioxo-1,2,3,6-tetrahydropyrimidin-4-yl) acetamide]	19 ± 1.30%	0.38 ± 0.03 ^a %	0.47 ± 0.01 ^a %	18.5 µM	45	0.411 µM	186 to 188 °C	56 ± 1.2 ^a,b	0.47 ± 0.04 ^a %	26%	–	–
COc1c2ccoc2cc2oc(C(=O)Nc3cc(=O)[nH]c(=S)[nH]3)c(C)c12 [Compound 5a, 4-methoxy-3-methyl-N-(6-oxo-2-thioxo-1,2,3,6-tetrahydropyrimidin-4-yl) benzo [1,2-b: 5,4-b`] difuran-2-carboxamide]	21 ± 2.10%	0.36 ± 0.02 ^a %	0.46 ± 0.02 ^a %	18.1 µM	48	0.375 µM	245 to 247 °C	54 ± 1.6 ^a,b	0.45 ± 0.03 ^a %	28%	–	–
COc1c2occc2c(OC)c2c(C)c(C(=O)Nc3cc(=O)[nH]c(=S)[nH]3)oc12 [Compound 5b, 4,8-dimethoxy-3-methyl-N-(6-oxo-2-thioxo-1,2,3,6-tetrahydropyrimidin-4-yl) benzo [1,2-b: 5,4-b`] difuran-2-carboxamide]	23 ± 0.70%	0.34 ± 0.01 ^a %	0.44 ± 0.03 ^a %	17.9 µM	50	0.36 µM	266 to 268 °C	52 ± 1.4 ^a,b	0.42 ± 0.04 ^a %	30%	–	–
COc1c2ccoc2cc2oc(C(=O)Nc3cc(=O)[nH]c(SCC(=O)O)n3)c(C)c12 [Compound 6a, 2-((4-(4-methoxy-3-methylbenzo [1,2-b: 5,4-b`]difuran-2-carboxamido)-6-oxo-1,6-dihydropyrimidin-2-yl)thio) acetic acid]	25 ± 0.50%	0.32 ± 0.02 ^a %	0.41 ± 0.02 ^a %	17.5 µM	51	0.345 µM	278 to 280 °C	50 ± 1.6 ^a,b	0.39 ± 0.01 ^a %	35%	–	–
COc1c2occc2c(OC)c2c(C)c(C(=O)Nc3cc(=O)[nH]c(SCC(=O)O)n3)oc12 [Compound 6b, 2-((4-(4,8-dimethoxy-3-methylbenzo [1,2-b: 5,4-b`]difuran-2-carboxamido)-6-oxo-1,6-dihydropyrimidin-2-yl)thio) acetic acid]	26 ± 0.80%	0.31 ± 0.04 ^a %	0.39 ± 0.01 ^a %	17.1 µM	55	0.311 µM	293 to 295 °C	49 ± 1.2 ^a,b	0.38 ± 0.03 ^a %	38%	–	–
COc1c2ccoc2cc2oc(C(=O)Nc3cc(=O)n4c(n3)SCC4=O)c(C)c12 [Compound 7a, N-(3,5-dioxo-2,3-dihydro-5H-thiazolo [3,2-a]pyrimidin-7-yl)-4-methoxy-3-methylbenzo [1,2-b: 5,4-b`] difuran-2-carboxamide]	33 ± 1.70%	0.26 ± 0.02 ^a %	0.30 ± 0.02 ^a %	7.95 µM	79	0.101 µM	308 to 310 °C	42 ± 1.8 ^a,b	0.31 ± 0.01 ^a %	50%	–	–
COc1c2occc2c(OC)c2c(C)c(C(=O)Nc3cc(=O)n4c(n3)SCC4=O)oc12 [Compound 7b, N-(3,5-dioxo-2,3-dihydro-5H-thiazolo[3,2-a]pyrimidin-7-yl)-4,8-dimethoxy-3-methylbenzo [1,2-b:5,4-b`]difuran-2-carboxamide]	35 ± 1.14%	0.25 ± 0.01 ^a %	0.29 ± 0.01 ^a %	7.18 µM	80	0.09 µM	327 to 329 °C	–	0.30 ± 0.02 ^a %	52%	–	–
O=C(O)Cc1ccccc1Nc1c(Cl)cccc1Cl [Diclofenac, reference compound]	–	0.13 ± 0.02 ^a %	0.20 ± 0.01 ^a %	–	–	–	–	25 ± 1.2 ^a	–	63%	51 ± 1.15 ^a %	51%
